In patent US20230131899A1, “INHIBITORS OF MICROBIALLY INDUCED AMYLOID” (Axial Therapeutics, Inc., priority 2020, published 2023) one finds remaining activity data, which are given here for 11 molecules.

Read-outs that look alike come from different tables or passages of the source.

The target of this test is T1, E. coli CsgA (Escherichia coli, UniProt P28307).
T1 construct: made in house; host or cells: E. coli NEB 3016 slyD::kan, pET11d
As to the kind of experiment: In vitro ThioflavinT assay of CsgA aggregation (CsgA ThT Assay). Conditions: 1005 minutes; for remaining activity at 25 µM: compound 25 μM; for remaining activity at 100 µM: compound 100 μM. It is filed as biochemical. An outline of the steps: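 Purified C-terminal His-tagged CsgA, monomerised by desalting and 30-kDa filtration, at 2-20 μM with 20-40 μM ThT in 50 mM potassium phosphate pH 7.3, 1% DMSO, compounds 3.125-200 uM; room temperature, fluorescence (ex 438/em 495 nm) read every 15 min. Background-subtracted signal expressed as percent inhibition versus vehicle at 6-6.5 or 8-9 h, or as percent control AUC.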

The mark [1] stands for this setting: read-out: CsgA ThT Assay (10 μM CsgA) % Control AUC at 1005 minutes, 25 μM (activity range), CsgA 10 μM, black plates, class symbol.
The mark [2] stands for this setting: read-out: CsgA ThT Assay (10 μM CsgA) % Control AUC at 1005 minutes, 25 μM, mean AUC as % of DMSO control, CsgA 10 μM, black plates.
The mark [3] stands for this setting: read-out: CsgA ThT Assay (10 μM CsgA) % Control AUC at 1005 minutes, 100 μM (activity range), CsgA 10 μM, black plates, class symbol.
Setting [4] is: read-out: CsgA ThT Assay (10 μM CsgA) % Control AUC at 1005 minutes, 100 μM, mean AUC as % of DMSO control, CsgA 10 μM, black plates.

T1 sequence (P28307 23-151): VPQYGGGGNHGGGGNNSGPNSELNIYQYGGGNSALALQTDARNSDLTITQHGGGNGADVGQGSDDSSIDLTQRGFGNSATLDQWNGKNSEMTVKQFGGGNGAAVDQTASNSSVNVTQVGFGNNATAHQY

Consider `CN1CC(C(=O)O)n2c(c(-c3cccc(C(F)(F)F)c3)c(Cc3cccc4ccccc34)c(N)c2=O)S1(=O)=O` (centres unmarked) [Compound 074, 7-amino-2-methyl-8-(naphthalen-1-ylmethyl)-6-oxo-9-(3-(trifluoromethyl)phenyl)-3,4-dihydro-2H,6H-pyrido[1,2-e][1,2,5]thiadiazine-4-carboxylic acid 1,1-dioxide], for which the remaining activity at 25 µM runs as follows: under setting [1], 11 to 31%; under setting [2], 28%. Moreover, the remaining activity at 100 µM under setting [3] was 11 to 31% and the remaining activity at 100 µM under setting [4] was determined as 24%.

As for `CN(C)Cc1c(Cc2cccc3ccccc23)c(-c2cccc(C(F)(F)F)c2)c2n(c1=O)C(C(=O)O)CS2` (centres unmarked) [Compound 075, 6-((dimethylamino)methyl)-7-(naphthalen-1-ylmethyl)-5-oxo-8-(3-(trifluoromethyl)phenyl)-2,3-dihydro-5H-thiazolo[3,2-a]pyridine-3-carboxylic acid], the remaining activity at 25 µM is more than 60% under setting [1] and 118% under setting [2]. The remaining activity at 100 µM is, setting by setting: under setting [3], more than 60%; under setting [4], 117%.

Regarding `CN1CC(C(=O)O)n2c(c(-c3cccc(C(F)(F)F)c3)c(Cc3cccc4ccccc34)c(C(N)=O)c2=O)S1(=O)=O` (centres unmarked) [Compound 109, 7-carbamoyl-2-methyl-8-(naphthalen-1-ylmethyl)-6-oxo-9-(3-(trifluoromethyl)phenyl)-3,4-dihydro-2H,6H-pyrido[1,2-e][1,2,5]thiadiazine-4-carboxylic acid 1,1-dioxide], the remaining activity at 25 µM under setting [1] lay in the range of 31 to 60% and the remaining activity at 25 µM under setting [2] came out at 55%. Further, the remaining activity at 100 µM was 11 to 31% under setting [3] and 22% under setting [4].

For `CCc1c(Cc2cccc3ccccc23)c(-c2cccc(C(F)(F)F)c2)c2n(c1=O)C(C(=O)O)CN(C1CCCCC1)S2(=O)=O` (centres unmarked) [Compound 116, 2-cyclohexyl-7-ethyl-8-(naphthalen-1-ylmethyl)-6-oxo-9-(3-(trifluoromethyl)phenyl)-3,4-dihydro-2H,6H-pyrido[1,2-e][1,2,5]thiadiazine-4-carboxylic acid 1,1-dioxide], the remaining activity at 25 µM under setting [1] was in the range of 11 to 31% and the remaining activity at 25 µM under setting [2] amounted to 30%. Further, the remaining activity at 100 µM was 31 to 60% under setting [3] and 38% under setting [4].

With `CN1CC(C(=O)O)n2c1c(-c1cccc(C(F)(F)F)c1)c(Cc1cccc3ccccc13)c(Br)c2=O` (centres unmarked) [Compound 119, 6-bromo-1-methyl-7-(naphthalen-1-ylmethyl)-5-oxo-8-(3-(trifluoromethyl)phenyl)-1,2,3,5-tetrahydroimidazo[1,2-a]pyridine-3-carboxylic acid], the remaining activity at 25 µM under setting [1] is 31 to 60% and the remaining activity at 25 µM under setting [2] came out at 47%. The remaining activity at 100 µM is, setting by setting: under setting [3], 31 to 60%; under setting [4], 35%.

In the case of `O=C(O)C1CN(CCCO)S(=O)(=O)c2c(-c3cccc(C(F)(F)F)c3)c(Cc3cccc4ccccc34)c(NC3CCCC3)c(=O)n21` (centres unmarked) [Compound 120, 7-(cyclopentylamino)-2-(3-hydroxypropyl)-8-(naphthalen-1-ylmethyl)-6-oxo-9-(3-(trifluoromethyl)phenyl)-3,4-dihydro-2H,6H-pyrido[1,2-e][1,2,5]thiadiazine-4-carboxylic acid 1,1-dioxide], the remaining activity at 25 µM by setting is: under setting [1], 11 to 31%; under setting [2], 28%. The remaining activity at 100 µM is 11 to 31% under setting [3] and 12% under setting [4].

As to `O=C(O)C1CN(CCCCO)S(=O)(=O)c2c(-c3cccc(C(F)(F)F)c3)c(Cc3cccc4ccccc34)c(NC3CCCC3)c(=O)n21` (centres unmarked) [Compound 121, 7-(cyclopentylamino)-2-(4-hydroxybutyl)-8-(naphthalen-1-ylmethyl)-6-oxo-9-(3-(trifluoromethyl)phenyl)-3,4-dihydro-2H,6H-pyrido[1,2-e][1,2,5]thiadiazine-4-carboxylic acid 1,1-dioxide], the remaining activity at 25 µM is 31 to 60% under setting [1] and 32% under setting [2]. Further, the remaining activity at 100 µM under setting [3] is 11 to 31% and the remaining activity at 100 µM under setting [4] was determined as 15%.

As for `O=C(O)C1CN(CCCCCO)S(=O)(=O)c2c(-c3cccc(C(F)(F)F)c3)c(Cc3cccc4ccccc34)c(NC3CCCC3)c(=O)n21` (centres unmarked) [Compound 122, 7-(cyclopentylamino)-2-(5-hydroxypentyl)-8-(naphthalen-1-ylmethyl)-6-oxo-9-(3-(trifluoromethyl)phenyl)-3,4-dihydro-2H,6H-pyrido[1,2-e][1,2,5]thiadiazine-4-carboxylic acid 1,1-dioxide], the remaining activity at 25 µM runs as follows: under setting [1], 31 to 60%; under setting [2], 32%. Besides, the remaining activity at 100 µM is, setting by setting: under setting [3], 11 to 31%; under setting [4], 15%.

`CC(C)N1CC(C(=O)O)n2c(c(-c3cccc(C(F)(F)F)c3)c(Cc3cccc4ccccc34)c(NC3CCCC3)c2=O)S1(=O)=O` (centres unmarked) [Compound 123, 7-(cyclopentylamino)-2-isopropyl-8-(naphthalen-1-ylmethyl)-6-oxo-9-(3-(trifluoromethyl)phenyl)-3,4-dihydro-2H,6H-pyrido[1,2-e][1,2,5]thiadiazine-4-carboxylic acid 1,1-dioxide]: the remaining activity at 25 µM under setting [1] lay within 11 to 31% and the remaining activity at 25 µM under setting [2] came out at 26%. Also, the remaining activity at 100 µM is, setting by setting: under setting [3], 11 to 31%; under setting [4], 25%.

Turning to `CCCN1CC(C(=O)O)n2c(c(-c3cccc(C(F)(F)F)c3)c(Cc3cccc4ccccc34)c(NC3CCCC3)c2=O)S1(=O)=O` (centres unmarked) [Compound 126, 7-(cyclopentylamino)-8-(naphthalen-1-ylmethyl)-6-oxo-2-propyl-9-(3-(trifluoromethyl)phenyl)-3,4-dihydro-2H,6H-pyrido[1,2-e][1,2,5]thiadiazine-4-carboxylic acid 1,1-dioxide], the remaining activity at 25 µM was 31 to 60% under setting [1] and 36% under setting [2]. The remaining activity at 100 µM runs as follows: under setting [3], 31 to 60%; under setting [4], 40%.

Take `CCCN1CC(C(=O)O)n2c(c(-c3cccc(C(F)(F)F)c3)c(Cc3cccc4ccccc34)c(NC3CCOCC3)c2=O)S1(=O)=O` (centres unmarked) [Compound 127, 8-(naphthalen-1-ylmethyl)-6-oxo-2-propyl-7-((tetrahydro-2H-pyran-4-yl)amino)-9-(3-(trifluoromethyl)phenyl)-3,4-dihydro-2H,6H-pyrido[1,2-e][1,2,5] thiadiazine-4-carboxylic acid 1,1-dioxide]: the remaining activity at 25 µM runs as follows: under setting [1], 11 to 31%; under setting [2], 26%. Further, the remaining activity at 100 µM runs as follows: under setting [3], less than 10%; under setting [4], 7%.
